Laboratory results reported in patent US11339193B2, “CDP protein secretion inhibitors” (KEZAR LIFE SCIENCES, priority 2018, dated 2022).
Numbered stars: 1 amine (or outer) side, 2 acyl side, 3 side chain; on linkers, the order of the positions; unused ones are H or OH. Square brackets hold non-standard residues; d marks the D form. Peptide text beside a SMILES is read from it. NMeTrp(1-(4-Br-benzyl)) = CN[C@@H](Cc1cn(Cc2ccc(Br)cc2)c2ccccc12)C(=O)O; X17 = CN([C@@H](Cc1cn(-c2ccccc2)c2ccccc12)C(=O)[*:2])[*:1]; Butanoyl(2R-oxy,4-CN) = N#CCC[C@@H](O)C(=O)O; Nva(5,5,5-F3) = N[C@@H](CCC(F)(F)F)C(=O)O; Abu(4,4,4-F3) = N[C@@H](CC(F)(F)F)C(=O)O; NMeBta = CN[C@@H](Cc1csc2ccccc12)C(=O)O; NMeL = CN[C@@H](CC(C)C)C(=O)O; NMeA = CN[C@@H](C)C(=O)O

Legend:
Format in all cases: cell-based
HER3ss-Gluc = test: HER3ss assay; details: HEK-293T T-rex cells, transient transfection, doxycycline, 24 h; read-out: HER3 ss IC50
Method in brief: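 HEK-293T T-REx cells were transiently transfected with HER3 signal sequence (plus four mature-domain residues) fused upstream of mature Gaussia luciferase. Cells were induced with doxycycline (1 μg/ml) and exposed to increasing compound concentrations for 24 h, then secreted luciferase in the conditioned medium was read by luminescence.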

[1] = tested on: JJN3 plasma cell leukemia cell line; test: JJN-3 assay (Alamar blue); details: Homo sapiens, 72 h
Experimental: (§1) BT474 is a human breast tumor cell line. JJN3 is a human plasma cell leukemia cell line. […] Cells were seeded at 100 000 cells/mL. Aliquots of 5000 cells (50 μL) were added to each well in black, clear bottom 96-well plates. Compounds or control (50 uL of 1% DMSO in cell culture medium) were added to the cells to the indicated final concentrations and cells were incubated for 72 h (unless otherwise specified). After incubation was complete, Alamar blue (10 uL of a 1 mg/mL solution) was added to each well and plates were incubated for 5 h. Fluorescence was then measured (excitation 545 nm, emission 590 nm) and is reported as […] normalized to DMSO control.

[2] = tested on: BT474 breast tumor cell line; test: BT474 assay (Alamar blue); details: Homo sapiens, BT-474, 72 h
Experimental: as §1

[3] = tested on: PD1-ss+10aa/Gaussia Luciferase; test: Dox induced PD1-ss-Gluc assay; details: Flp-In 293 T-REx cells, doxycycline, 24 hours; read-out: PD1ss Gluc IC50
Method in brief: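 Stable Flp-In 293 T-REx line expressing doxycycline-inducible Gaussia luciferase fused to the PD1 signal sequence plus 10 amino acids. Cells plated the day before, then exposed to compound dilutions in DMSO/media containing doxycycline at 37 °C, 5% CO2.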

[4] = tested on: NCI-H929 multiple myeloma cell line; test: H929 assay (cell viability, Celltiter-Glo); details: Homo sapiens, NCI-H929; 48 hours, cell viability; read-out: H929 EC50
Method in brief: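 Cells plated in RPMI 1640 with 10% FBS and 2 mM glutamine, treated with compound dilutions in DMSO/media. Incubation 48 h at 37° C, 5% CO2. Viability from luciferase luminescence signal.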

[5] = tested on: Prl-ss+10aa/Gaussia Luciferase; test: Prl-ss-Gluc assay (constitutively active or 24 hr Dox inducible); details: Flp-In 293 T-REx cells, 24 hours; read-out: Prl IC50
Method in brief: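 Stable Flp-In 293 T-REx lines express Prl signal sequence+10aa fused to Gaussia luciferase, either constitutively (pcDNA5/FRT) or under the T-REx promoter (pcDNA5/FRT/TO). Cells plated the day before; compounds in DMSO/media (with doxycycline for the inducible line, 24 h) incubated at 37 °C, 5% CO2.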

[6] = tested on: TNFα-FL/Gaussia Luciferase; test: Dox induced TNFα-FL-Gluc assay; details: Flp-In 293 T-REx cells, doxycycline, 24 hours; read-out: TNFa FL Gluc IC50
Method in brief: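 Stable Flp-In 293 T-REx line expressing full-length TNFα (aa 1-233) fused at its C-terminus to Gaussia luciferase under doxycycline-inducible control. Cells plated the day before, then given compound dilutions in DMSO/media containing doxycycline and incubated at 37 °C, 5% CO2.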

[7] = tested on: U266B1 multiple myeloma cell line; test: U266 assay (cell viability, Celltiter-Glo); details: Homo sapiens, U-266; 48 hours, cell viability
Experimental: Cells were plated in 384-well tissue culture plates and treated with compound dilutions in DMSO/media. Plates were incubated at 37° C., 5% CO2 for 48 hours. After 48 hours, Celltiter-Glo@ (Promega) was added to each well and luciferase signal was quantified using Tecan Infinite M1000 Pro for cell viability determination.

[8] = tested on: VCAMss+10aa/Gaussia Luciferase; test: VCAM-ss-Gluc assay (constitutively active or Dox induced); details: Flp-In 293 T-REx cells, 24 hours
Experimental: Assays Constitutively Active VCAM-ss-Gluc Assay
Transfected cells were selected for resistance to the selectable markers Hygromycin and Blasticidin to create a stable cell line that constitutively expressed the VCAMss+ 10aa/Gaussia Luciferase fusion protein. The day before assay, cells were trypsinized and plated in 384-well tissue culture plates. The next day, culture media was removed from the wells and replaced with fresh media. Compound dilutions in DMSO/media were added to the wells and incubated at 37° C., 5% CO2.
Dox Induced VCAM-ss-Gluc Assay
Transfected cells were selected for resistance to the selectable markers Hygromycin and Blasticidin to create a stable cell line that contained the VCAMss+10aa/Gaussia Luciferase cDNA insert whose expression was regulated under the T-REx™ system. The day before assay, cells were trypsinized and plated in 384-well tissue culture plates. The next day, compound dilutions in DMSO/media containing doxycycline were added to the wells and incubated at 37° C., 5% CO2.

Row | IC50 (HER3ss-Gluc) [µM] | EC50 [1] [µM] | EC50 [2] [µM] | IC50 [3] [µM] | EC50 [4] [µM] | IC50 [5] [µM] | IC50 [6] [µM] | EC50 [7] [µM] | IC50 [8] [µM] | SMILES
1 | 0.245 | 0.669 | 5.84 |  |  |  |  |  |  | CC(C)C[C@@H]1NC(=O)[C@H](Cc2cn(Cc3cccc(OC(F)F)c3)c3ccccc23)N(C)C(=O)[C@H](CC(C)C)NC(=O)[C@H](CC(C)C)N(C)C(=O)[C@H](CC(C)C)NC(=O)[C@@H](CCC#N)OC(=O)[C@H](C)N(C)C1=O [C-76] (HELM PEPTIDE1{L.[meA].[N#CCC[C@@H](O[*:1])C(=O)[*:2]].L.[meL].L.[CN([C@@H](Cc1cn(Cc2cccc(OC(F)F)c2)c2ccccc12)C(=O)[*:2])[*:1]]}$PEPTIDE1,PEPTIDE1,1:R1-7:R2$$$V2.0)
2 | 0.267 | 8.81 | 6.36 | 0.582 | 6.29 | 18.5 | 1.02 | 20.9 |  | CC(C)C[C@@H]1NC(=O)[C@H](Cc2ccccc2)N(C)C(=O)[C@H](CC(C)C)NC(=O)[C@H](CC(C)C)N(C)C(=O)[C@H](CC(C)C)NC(=O)[C@@H](CCC#N)OC(=O)[C@H](C)N(C)C1=O [C-37] (HELM PEPTIDE1{L.[meA].[N#CCC[C@@H](O[*:1])C(=O)[*:2]].L.[meL].L.[meF]}$PEPTIDE1,PEPTIDE1,1:R1-7:R2$$$V2.0)
3 |  | 1.07 | 3.44 | 0.133 | 6.2 |  | 0.836 |  | 0.072 | CC(C)C[C@@H]1NC(=O)[C@H](Cc2cn(-c3ccccc3)c3ccccc23)N(C)C(=O)[C@H](CC(C)C)NC(=O)[C@H](CC(C)C)N(C)C(=O)[C@H](CC(F)(F)F)NC(=O)[C@@H](CCC#N)OC(=O)[C@H](C)N(C)C1=O [C-51] (cyclo(L[NMeA][Butanoyl(2R-oxy,4-CN)][Abu(4,4,4-F3)][NMeL]L[X17]))
4 | 0.787 | 2.5 | 15.1 |  |  |  |  |  |  | CC(C)C[C@@H]1NC(=O)[C@H](Cc2cn(Cc3cccc(Br)c3)c3ccccc23)N(C)C(=O)[C@H](CC(C)C)NC(=O)[C@H](CC(C)C)N(C)C(=O)[C@H](CC(C)C)NC(=O)[C@@H](CCC#N)OC(=O)[C@H](C)N(C)C1=O [C-77] (HELM PEPTIDE1{L.[meA].[N#CCC[C@@H](O[*:1])C(=O)[*:2]].L.[meL].L.[CN([C@@H](Cc1cn(Cc2cccc(Br)c2)c2ccccc12)C(=O)[*:2])[*:1]]}$PEPTIDE1,PEPTIDE1,1:R1-7:R2$$$V2.0)
5 |  | 0.284 | 1.24 | 0.027 | 1.63 | 1.34 | 0.133 |  | 0.036 | CC(C)C[C@@H]1NC(=O)[C@H](CC(C)C)N(C)C(=O)[C@H](CC(F)(F)F)NC(=O)[C@@H](CCC#N)OC(=O)[C@H](C)N(C)C(=O)[C@H](CCC(F)(F)F)NC(=O)[C@H](Cc2cn(Cc3ccc(Br)cc3)c3ccccc23)N(C)C1=O [C-48] (cyclo(L[NMeTrp(1-(4-Br-benzyl))][Nva(5,5,5-F3)][NMeA][Butanoyl(2R-oxy,4-CN)][Abu(4,4,4-F3)][NMeL]))
6 |  | 1.08 | 2.45 | 0.201 | 4.54 | 9.06 | 0.644 |  | 0.03 | CC(C)C[C@@H]1NC(=O)[C@@H](CCC#N)OC(=O)[C@H](C)N(C)C(=O)[C@H](CCC(F)(F)F)NC(=O)[C@H](Cc2csc3ccccc23)N(C)C(=O)[C@H](CC(C)C)NC(=O)[C@H](CC(C)C)N(C)C1=O [C-50] (cyclo(L[NMeBta][Nva(5,5,5-F3)][NMeA][Butanoyl(2R-oxy,4-CN)]L[NMeL]))
7 |  | 0.111 | 0.444 | 0.025 | 0.629 | 0.619 | 0.09 |  |  | CC(C)C[C@@H]1NC(=O)[C@H](Cc2cn(Cc3ccc(Br)cc3)c3ccccc23)N(C)C(=O)[C@H](CC(F)(F)F)NC(=O)[C@H](CC(C)C)N(C)C(=O)[C@H](CC(F)(F)F)NC(=O)[C@@H](CCC#N)OC(=O)[C@H](C)N(C)C1=O [C-58, 3-((2R,5S,8S,11S,14S,17S,20S)-14-((1-(4-bromobenzyl)-1H-indol-3-yl)methyl)-8,17-diisobutyl-7,13,19,20-tetramethyl-3,6,9,12,15,18,21-heptaoxo-5,11-bis(2,2,2-trifluoroethyl)-1-oxa-4,7,10,13,16,19-hexaazacyclohenicosan-2-yl)propanenitrile] (cyclo(L[NMeA][Butanoyl(2R-oxy,4-CN)][Abu(4,4,4-F3)][NMeL][Abu(4,4,4-F3)][NMeTrp(1-(4-Br-benzyl))]))
8 |  | 0.64 | 3.12 | 0.035 | 3.07 | 15 | 0.296 |  | 0.141 | CCCC[C@@H]1NC(=O)[C@@H](CCC#N)OC(=O)[C@H](C)N(C)C(=O)[C@H](CC(C)C)NC(=O)[C@H](Cc2cn(Cc3ccc(C(F)(F)F)cc3)c3ccccc23)N(C)C(=O)[C@H](CC(C)C)NC(=O)[C@H](CC(C)C)N(C)C1=O [C-46] (HELM PEPTIDE1{L.[meA].[N#CCC[C@@H](O[*:1])C(=O)[*:2]].[Nle].[meL].L.[CN([C@@H](Cc1cn(Cc2ccc(C(F)(F)F)cc2)c2ccccc12)C(=O)[*:2])[*:1]]}$PEPTIDE1,PEPTIDE1,1:R1-7:R2$$$V2.0)
9 | 0.857 | 0.92 | 8.22 |  |  |  |  |  |  | CC(C)C[C@@H]1NC(=O)[C@H](Cc2cn(Cc3cccc(OC(F)(F)F)c3)c3ccccc23)N(C)C(=O)[C@H](CC(C)C)NC(=O)[C@H](CC(C)C)N(C)C(=O)[C@H](CC(C)C)NC(=O)[C@@H](CCC#N)OC(=O)[C@H](C)N(C)C1=O [C-75] (HELM PEPTIDE1{L.[meA].[N#CCC[C@@H](O[*:1])C(=O)[*:2]].L.[meL].L.[CN([C@@H](Cc1cn(Cc2cccc(OC(F)(F)F)c2)c2ccccc12)C(=O)[*:2])[*:1]]}$PEPTIDE1,PEPTIDE1,1:R1-7:R2$$$V2.0)
10 |  | 0.154 | 0.832 | 0.026 | 0.834 | 1.5 | 0.112 |  |  | CC(C)C[C@@H]1NC(=O)[C@H](Cc2cn(Cc3ccc(Br)cc3)c3ccccc23)N(C)C(=O)[C@H](CCC(F)(F)F)NC(=O)[C@H](CC(C)C)N(C)C(=O)[C@H](CC(F)(F)F)NC(=O)[C@@H](CCC#N)OC(=O)[C@H](C)N(C)C1=O [C-57] (cyclo(L[NMeA][Butanoyl(2R-oxy,4-CN)][Abu(4,4,4-F3)][NMeL][Nva(5,5,5-F3)][NMeTrp(1-(4-Br-benzyl))]))

Row | SMILES | IC50 (HER3ss-Gluc) [µM] | EC50 [1] [µM] | EC50 [2] [µM] | IC50 [3] [µM] | EC50 [4] [µM] | IC50 [5] [µM] | IC50 [6] [µM] | EC50 [7] [µM] | IC50 [8] [µM]
11 | COc1ccc(Cn2cc(C[C@H]3C(=O)N[C@@H](CC(C)C)C(=O)N(C)[C@@H](C)C(=O)O[C@H](CCC#N)C(=O)N[C@@H](CC(C)C)C(=O)N(C)[C@@H](CC(C)C)C(=O)N[C@@H](CC(C)C)C(=O)N3C)c3ccccc32)cc1 [C-31] (HELM PEPTIDE1{L.[meA].[N#CCC[C@@H](O[*:1])C(=O)[*:2]].L.[meL].L.[COc1ccc(Cn2cc(C[C@@H](C(=O)[*:2])N(C)[*:1])c3ccccc32)cc1]}$PEPTIDE1,PEPTIDE1,1:R1-7:R2$$$V2.0) | 0.264 | 2.06 | 5.89 | 0.38 |  |  | 4.06 |  | 
